Legend:
[1] = In vivo SPECT-CT imaging after intravenous tail vein injection of 201Tl; parameters: species or system CBA/CaJ mice
Description: To test whether or not 201Tl can pass through the cochlear intrastrial fluid blood barrier, so as to image K^+ in a bony structure like the cochlea using SPECT techniques, in vivo experiments were performed with CBA/CaJ mice. Young adult mice were injected with TlCl radioactive solution intravenously with a dose of ˜400 μCi/animal in the tail vein. The Siemens Inveon® multimodality microPET/SPECT/CT platform was used (mouse brain pinhole collimator with a total of 12 projections) to image the brain, cochlea and whole body. CT imaging was also carried out for anatomical referencing. […] One animal was imaged for five continuous days, and as expected, the SPECT signal decreased over that time period in the cochlea and other body parts.
The region of interest (ROI) was drawn for the cochlea using anatomical images from the CT scans. Similarly, radiation signals (mean image intensity) from the two sides (left and right cochleae) were equal (FIG. 4b), indicating symmetrical absorption of the ^201Tl for the peripheral auditory system (cochlea). […] This observation (^201Tl maximum accumulation in the kidney) was consistent with the reported literature as ^201Tl is known to maximally accumulate there 17,18
After baseline phantom in vitro experiments were completed, in vivo imaging experiments were conducted using young adult CBA/CaJ mice (2-3 months old, n=6, 3 females and 3 males) to determine whether 201Tl can pass through the cochlear intrastrial fluid/blood barrier and if the bony cochlea can be imaged using SPECT. Each mouse was injected with approximately 400 μCi ^201Tl radiation into tail veins through a catheter. Similar to the in vitro phantom experiments, a total of 12 projections over a 360 arc were used to collect the images. During the imaging data collection, animals were under gas anesthesia (1-2% isoflurane) in an air-warmed imaging chamber (Harvard Apparatus, Cambridge, MA) to keep body temperature constant at 37° C., and the breathing rate and pattern were continuously monitored. For anatomical referencing of the cochlea, CT imaging was also conducted in conjunction with SPECT. The region of Interest (ROI) was drawn with the help of the CT referencing. Images were reconstructed using maximum-likely-hood expectation maximization (MLEM) algorithm, and finally, 3-D images were reconstructed with scattering and attenuation corrections.

[2] = Ex vivo SPECT-CT imaging and radioactivity measurements (gamma spectroscopy) of dissected cochleae and body tissues; type: in vivo, CBA/CaJ mice
Description: For further confirmation, a pair of cochleae from a single mouse were dissected and ex vivo measurements (SPECT-CT image and radioactivity measurements-gamma spectroscopy) were carried out. […] Mean intensity and total photons were calculated from both the cochleae SPECT images. […] Moreover, energy spectra were measured using a BioDEx ion chamber and both cochleae had the same spectra, with the peak energy around 68 KeV—same as ^201Tl energy peak (FIG. 6e). These ex vivo measurements further confirm the equal distribution of ^201Tl for both inner ears.
In addition, the radiation signal was measured from various body parts, in comparison to the cochlea. The measurements were calculated per gm of tissue (specific activity) to make comparisons among various tissues and specific activities were further normalized with brain specific activity.
At the end of the imaging session, animals were sacrificed and ex vivo experiments were carried out in which radiation signals were measured from various body regions, including the brain and cochlea. A pair of cochleae were dissected and ex vivo measurements were done using both SPECT-CT imaging as well as radioactivity measurements (BioDex 500 ion chamber; gamma spectroscopy). Images were reconstructed from SPECT-CT data as per the same algorithms and protocols used for the in-vivo experiments.

Question: Which “Sex difference in cochlear SPECT signal (mean image intensity)” value ([1]; 3 males vs 3 females) does the source give for `[Cl][201Tl]` [^201Tl, Thallium-201] here?
Answer: no sex difference

Question: And the “Time after injection at which SPECT radiation signals were observed from the cochlea” value ([1]; first scan after i.v. injection)?
Answer: within minutes

Question: What about the “Radiation signals (mean image intensity), left vs right cochleae” value ([1]; in vivo SPECT) of the same compound?
Answer: equal

Question: What about the “Average cochlear SPECT signal relative to brain signal” value ([1]; in vivo SPECT, ROI drawn with CT, ~400 μCi/animal i.v. tail vein) of the same compound?
Answer: about two

Question: What about the “Entry of the radiotracer into the bony cochlea” value ([1]; in vivo SPECT-CT of mouse cochlea) of the same compound?
Answer: can enter the bony cochlea

Question: And the “Change of SPECT signal in the cochlea and other body parts over time” value ([1]; one animal imaged for five continuous days)?
Answer: decreased

Question: And the “Site of maximum accumulation, whole body SPECT imaging” value ([1]; whole body SPECT, ~400 μCi/animal i.v.)?
Answer: kidney

Question: And the “Mean intensity and total photons, cochlea 1 vs cochlea 2” value ([2]; ex vivo SPECT-CT of a dissected pair of cochleae from a single mouse)?
Answer: no quantitative difference

Question: And the “Specific activity (per gm of tissue, normalized to brain) of the cochlea compared with other body parts” value ([2]; ex vivo radioactivity measurements)?
Answer: highest signal among most body parts, except kidney

Question: And the “Cochlear radioactivity signal relative to brain” value ([2]; ex vivo, gamma spectroscopy of body tissues)?
Answer: 2.2 times
